# Test results as given in US20050239656A1, “Pyridine compounds or salts thereof and herbicides containing the same” (priority 2002, published 2005).
# Test system: rice (var. Nihonbare)
# Test: Test Example 3: paddy pot test, transplanted rice
# Assay type: in vivo, Oryza sativa L.
# Details: active ingredient 500 g/ha, applied 4th day after transplantation, visually observed 21st day after application, 0 = non-treated, 100 = complete kill
# In short: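 Rice (var. Nihonbare) at 2 leaf stage transplanted 3 cm deep into puddled paddy soil under 3–4 cm flooding; on day 4 after transplanting, diluted wettable powder or emulsifiable concentrate applied by pipette under submerged conditions at a set active-ingredient dose. Growth scored visually 21 days after application, 0 (untreated) to 100 (complete kill) %.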
row,SMILES,Growth controlling degree (%) Rice [%]
1,CC(C)C(NC(=O)Cc1ccc(Br)cc1)c1cnccc1C(F)(F)F (centres unmarked) [Compound I-8],0
2,CN(C(=O)Cc1cccs1)C(c1cnccc1C(F)(F)F)c1cccc2ccccc12 (centres unmarked) [Compound I-48],10
3,CC(C(=O)NC(c1cnccc1C(F)(F)F)C(C)C)c1ccccc1 (centres unmarked) [Compound I-11],10

# Same assay, conditions: active ingredient 1000 g/ha, applied 4th day after transplantation, visually observed 21st day after application, 0 = non-treated, 100 = complete kill
row,SMILES,Growth controlling degree (%) Rice [%]
1,CC(C)C(NC(=O)Cc1ccccc1)c1cnccc1C(F)(F)F (centres unmarked) [Compound I-3],20

# Test system: barnyardgrass
# Test: Test Example 3: paddy pot test, application under submerged conditions
# Assay type: in vivo, Echinochloa crus-galli L.
# Details: active ingredient 500 g/ha; submerged application at 0.5 leaf stage; visually observed 14 days after application; 0 = non-treated, 100 = complete kill
# In short: (§1)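 Visual growth-control rating (0 = untreated, 100 = complete kill) 14 days after treatment. The formulated compound, as a diluted wettable powder or emulsifiable concentrate, went into 3–4 cm flood water at a predetermined active-ingredient dose once the weeds reached 0.5 leaf stage (wapato: primary leaf stage).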
row,SMILES,Growth controlling degree (%) Barnyardgrass [%]
1,CC(C)C(NC(=O)Cc1ccc(Br)cc1)c1cnccc1C(F)(F)F (centres unmarked) [Compound I-8],90
2,CN(C(=O)Cc1cccs1)C(c1cnccc1C(F)(F)F)c1cccc2ccccc12 (centres unmarked) [Compound I-48],100
3,CC(C(=O)NC(c1cnccc1C(F)(F)F)C(C)C)c1ccccc1 (centres unmarked) [Compound I-11],60

# Same assay, conditions: active ingredient 1000 g/ha; submerged application at 0.5 leaf stage; visually observed 14 days after application; 0 = non-treated, 100 = complete kill
row,SMILES,Growth controlling degree (%) Barnyardgrass [%]
1,CC(C)C(NC(=O)Cc1ccccc1)c1cnccc1C(F)(F)F (centres unmarked) [Compound I-3],90

# Test system: japanese ribbon wapato
# Test: as above
# Assay type: in vivo, Sagittaria pygniaea
# Details: active ingredient 500 g/ha; submerged application at primary leaf stage; visually observed 14 days after application; 0 = non-treated, 100 = complete kill
# In short: as §1
row,SMILES,Growth controlling degree (%) Japanese ribbon wapato [%]
1,CC(C)C(NC(=O)Cc1ccc(Br)cc1)c1cnccc1C(F)(F)F (centres unmarked) [Compound I-8],10
2,CN(C(=O)Cc1cccs1)C(c1cnccc1C(F)(F)F)c1cccc2ccccc12 (centres unmarked) [Compound I-48],0
3,CC(C(=O)NC(c1cnccc1C(F)(F)F)C(C)C)c1ccccc1 (centres unmarked) [Compound I-11],30

# Same assay, conditions: active ingredient 1000 g/ha; submerged application at primary leaf stage; visually observed 14 days after application; 0 = non-treated, 100 = complete kill
row,SMILES,Growth controlling degree (%) Japanese ribbon wapato [%]
1,CC(C)C(NC(=O)Cc1ccccc1)c1cnccc1C(F)(F)F (centres unmarked) [Compound I-3],30

# Test system: velvetleaf
# Test: Test Example 2: soil surface treatment, upland pot test
# Assay type: in vivo, Abutilon theophrasti MEDIC.
# Details: active ingredient 1000 g/ha, observed 20th to 28th day
# In short: (§2)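 Upland soil in pots of 1/170,000 ha is sown; on day 1 after sowing the formulated compound (wettable powder or emulsifiable concentrate, predetermined a.i. amount, water volume 1,500 L/ha) is applied to the soil surface with a small sprayer. Percent control is judged by eye 20–28 days later.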
row,SMILES,Growth controlling degree (%) Velvetleaf [%]
1,CC(C)C(NC(=O)Cc1ccccc1)c1cnccc1C(F)(F)F (centres unmarked) [Compound I-3],0
2,CC(C)C(NC(=O)Cc1ccc(Br)cc1)c1cnccc1C(F)(F)F (centres unmarked) [Compound I-8],0
3,CC(C(=O)NC(c1cnccc1C(F)(F)F)C(C)C)c1ccccc1 (centres unmarked) [Compound I-11],0

# Same assay, conditions: active ingredient 2000 g/ha, observed 20th to 28th day
row,SMILES,Growth controlling degree (%) Velvetleaf [%]
1,CN(C(=O)Cc1cccs1)C(c1cnccc1C(F)(F)F)c1cccc2ccccc12 (centres unmarked) [Compound I-48],40

# Test system: rice
# Test: as above
# Assay type: in vivo, Oryza sativa L.
# Details: active ingredient 1000 g/ha, observed 20th to 28th day
# In short: as §2
row,SMILES,Growth controlling degree (%) Rice [%]
1,CC(C)C(NC(=O)Cc1ccccc1)c1cnccc1C(F)(F)F (centres unmarked) [Compound I-3],10
2,CC(C)C(NC(=O)Cc1ccc(Br)cc1)c1cnccc1C(F)(F)F (centres unmarked) [Compound I-8],10
3,CC(C(=O)NC(c1cnccc1C(F)(F)F)C(C)C)c1ccccc1 (centres unmarked) [Compound I-11],0

# Same assay, conditions: active ingredient 2000 g/ha, observed 20th to 28th day
row,SMILES,Growth controlling degree (%) Rice [%]
1,CN(C(=O)Cc1cccs1)C(c1cnccc1C(F)(F)F)c1cccc2ccccc12 (centres unmarked) [Compound I-48],20

# Test system: wheat
# Test: as above
# Assay type: in vivo, Triticum spp.
# Details: active ingredient 1000 g/ha, observed 20th to 28th day
# Description: Upland field soil was put into a 1/170,000 ha pot, and seed of various plants (barnyardgrass, crabgrass, green foxtail, redroot pigweed, prickly sida, velvetleaf, rice, wheat, corn, soybean) were sown. On the 1st day after the sowing, a wettable powder or emulsifiable concentrate having the compound of the present invention formulated in accordance with a usual formulation method, was weighed so that the active ingredient would be a predetermined amount, and diluted with water in an amount of 1,500 L/ha. The herbicide thus adjusted was applied by a small size sprayer for soil surface treatment. On the 20th to 28th days after the application of the herbicide, the growth of the respective plants was visually observed, and the herbicidal effects were evaluated by the growth controlling degrees (%) ranging from 0 (equivalent to the non-treated plot) to 100 (complete kill), whereby the results shown in Table 4, were obtained.
row,SMILES,Growth controlling degree (%) wheat [%]
1,CC(C)C(NC(=O)Cc1ccccc1)c1cnccc1C(F)(F)F (centres unmarked) [Compound I-3],0
2,CC(C)C(NC(=O)Cc1ccc(Br)cc1)c1cnccc1C(F)(F)F (centres unmarked) [Compound I-8],30
3,CC(C(=O)NC(c1cnccc1C(F)(F)F)C(C)C)c1ccccc1 (centres unmarked) [Compound I-11],50

# Same assay, conditions: active ingredient 2000 g/ha, observed 20th to 28th day
row,SMILES,Growth controlling degree (%) wheat [%]
1,CN(C(=O)Cc1cccs1)C(c1cnccc1C(F)(F)F)c1cccc2ccccc12 (centres unmarked) [Compound I-48],30

# Test system: crabgrass
# Test: as above
# Assay type: in vivo, Digitaria sanguinalis L.
# Details: active ingredient 1000 g/ha, observed 20th to 28th day
# In short: as §2
row,SMILES,Growth controlling degree (%) Crabgrass [%]
1,CC(C)C(NC(=O)Cc1ccccc1)c1cnccc1C(F)(F)F (centres unmarked) [Compound I-3],90
2,CC(C)C(NC(=O)Cc1ccc(Br)cc1)c1cnccc1C(F)(F)F (centres unmarked) [Compound I-8],50
3,CC(C(=O)NC(c1cnccc1C(F)(F)F)C(C)C)c1ccccc1 (centres unmarked) [Compound I-11],90

# Same assay, conditions: active ingredient 2000 g/ha, observed 20th to 28th day
row,SMILES,Growth controlling degree (%) Crabgrass [%]
1,CN(C(=O)Cc1cccs1)C(c1cnccc1C(F)(F)F)c1cccc2ccccc12 (centres unmarked) [Compound I-48],70

# Test system: green foxtail
# Test: as above
# Assay type: in vivo, Setaria viridis L.
# Details: active ingredient 1000 g/ha, observed 20th to 28th day
# In short: as §2
row,SMILES,Growth controlling degree (%) Green foxtail [%]
1,CC(C)C(NC(=O)Cc1ccccc1)c1cnccc1C(F)(F)F (centres unmarked) [Compound I-3],90
2,CC(C)C(NC(=O)Cc1ccc(Br)cc1)c1cnccc1C(F)(F)F (centres unmarked) [Compound I-8],50
3,CC(C(=O)NC(c1cnccc1C(F)(F)F)C(C)C)c1ccccc1 (centres unmarked) [Compound I-11],90

# Same assay, conditions: active ingredient 2000 g/ha, observed 20th to 28th day
row,SMILES,Growth controlling degree (%) Green foxtail [%]
1,CN(C(=O)Cc1cccs1)C(c1cnccc1C(F)(F)F)c1cccc2ccccc12 (centres unmarked) [Compound I-48],100

# Test system: redroot pigweed
# Test: as above
# Assay type: in vivo, Amaranthus retroflexus L.
# Details: active ingredient 1000 g/ha, observed 20th to 28th day
# In short: as §2
row,SMILES,Growth controlling degree (%) Redroot pigweed [%]
1,CC(C)C(NC(=O)Cc1ccccc1)c1cnccc1C(F)(F)F (centres unmarked) [Compound I-3],20
2,CC(C)C(NC(=O)Cc1ccc(Br)cc1)c1cnccc1C(F)(F)F (centres unmarked) [Compound I-8],80
3,CC(C(=O)NC(c1cnccc1C(F)(F)F)C(C)C)c1ccccc1 (centres unmarked) [Compound I-11],0

# Same assay, conditions: active ingredient 2000 g/ha, observed 20th to 28th day
row,SMILES,Growth controlling degree (%) Redroot pigweed [%]
1,CN(C(=O)Cc1cccs1)C(c1cnccc1C(F)(F)F)c1cccc2ccccc12 (centres unmarked) [Compound I-48],30

# Test system: japanese bulrush
# Test: Test Example 3: paddy pot test, application under submerged conditions
# Assay type: in vivo, Scirpus juncoides
# Details: active ingredient 500 g/ha; submerged application at 0.5 leaf stage; visually observed 14 days after application; 0 = non-treated, 100 = complete kill
# In short: as §1
row,SMILES,Growth controlling degree (%) Japanese bulrush [%]
1,CC(C)C(NC(=O)Cc1ccc(Br)cc1)c1cnccc1C(F)(F)F (centres unmarked) [Compound I-8],90
2,CN(C(=O)Cc1cccs1)C(c1cnccc1C(F)(F)F)c1cccc2ccccc12 (centres unmarked) [Compound I-48],30
3,CC(C(=O)NC(c1cnccc1C(F)(F)F)C(C)C)c1ccccc1 (centres unmarked) [Compound I-11],90

# Same assay, conditions: active ingredient 1000 g/ha; submerged application at 0.5 leaf stage; visually observed 14 days after application; 0 = non-treated, 100 = complete kill
row,SMILES,Growth controlling degree (%) Japanese bulrush [%]
1,CC(C)C(NC(=O)Cc1ccccc1)c1cnccc1C(F)(F)F (centres unmarked) [Compound I-3],98

# Test system: corn
# Test: Test Example 2: soil surface treatment, upland pot test
# Assay type: in vivo, Zea mays L.
# Details: active ingredient 1000 g/ha, observed 20th to 28th day
# In short: as §2
row,SMILES,Growth controlling degree (%) Corn [%]
1,CC(C)C(NC(=O)Cc1ccccc1)c1cnccc1C(F)(F)F (centres unmarked) [Compound I-3],0
2,CC(C)C(NC(=O)Cc1ccc(Br)cc1)c1cnccc1C(F)(F)F (centres unmarked) [Compound I-8],10
3,CC(C(=O)NC(c1cnccc1C(F)(F)F)C(C)C)c1ccccc1 (centres unmarked) [Compound I-11],10

# Same assay, conditions: active ingredient 2000 g/ha, observed 20th to 28th day
row,SMILES,Growth controlling degree (%) Corn [%]
1,CN(C(=O)Cc1cccs1)C(c1cnccc1C(F)(F)F)c1cccc2ccccc12 (centres unmarked) [Compound I-48],10

# Test system: barnyardgrass
# Test: as above
# Assay type: in vivo, Echinochloa crus-galli L.
# Details: active ingredient 1000 g/ha, observed 20th to 28th day, 0 = non-treated, 100 = complete kill
# In short: as §2
row,SMILES,Growth controlling degree (%) Barnyardgrass [%]
1,CC(C)C(NC(=O)Cc1ccccc1)c1cnccc1C(F)(F)F (centres unmarked) [Compound I-3],0
2,CC(C)C(NC(=O)Cc1ccc(Br)cc1)c1cnccc1C(F)(F)F (centres unmarked) [Compound I-8],50
3,CC(C(=O)NC(c1cnccc1C(F)(F)F)C(C)C)c1ccccc1 (centres unmarked) [Compound I-11],98

# Same assay, conditions: active ingredient 2000 g/ha, observed 20th to 28th day
row,SMILES,Growth controlling degree (%) Barnyardgrass [%]
1,CN(C(=O)Cc1cccs1)C(c1cnccc1C(F)(F)F)c1cccc2ccccc12 (centres unmarked) [Compound I-48],20

# Test system: prickly sida
# Test: as above
# Assay type: in vivo, Sida spinosa L.
# Details: active ingredient 1000 g/ha, observed 20th to 28th day
# In short: as §2
row,SMILES,Growth controlling degree (%) Prickly sida [%]
1,CC(C)C(NC(=O)Cc1ccccc1)c1cnccc1C(F)(F)F (centres unmarked) [Compound I-3],10
2,CC(C)C(NC(=O)Cc1ccc(Br)cc1)c1cnccc1C(F)(F)F (centres unmarked) [Compound I-8],50
3,CC(C(=O)NC(c1cnccc1C(F)(F)F)C(C)C)c1ccccc1 (centres unmarked) [Compound I-11],0

# Same assay, conditions: active ingredient 2000 g/ha, observed 20th to 28th day
row,SMILES,Growth controlling degree (%) Prickly sida [%]
1,CN(C(=O)Cc1cccs1)C(c1cnccc1C(F)(F)F)c1cccc2ccccc12 (centres unmarked) [Compound I-48],20

# Test system: soybean
# Test: as above
# Assay type: in vivo, Glycine max Merr.
# Details: active ingredient 1000 g/ha, observed 20th to 28th day
# In short: as §2
row,SMILES,Growth controlling degree (%) Soyabean [%]
1,CC(C)C(NC(=O)Cc1ccccc1)c1cnccc1C(F)(F)F (centres unmarked) [Compound I-3],0
2,CC(C)C(NC(=O)Cc1ccc(Br)cc1)c1cnccc1C(F)(F)F (centres unmarked) [Compound I-8],30
3,CC(C(=O)NC(c1cnccc1C(F)(F)F)C(C)C)c1ccccc1 (centres unmarked) [Compound I-11],0

# Same assay, conditions: active ingredient 2000 g/ha, observed 20th to 28th day
row,SMILES,Growth controlling degree (%) Soyabean [%]
1,CN(C(=O)Cc1cccs1)C(c1cnccc1C(F)(F)F)c1cccc2ccccc12 (centres unmarked) [Compound I-48],0
